The values below come from patent publication US10829458B2 (Araxes Pharma LLC, priority 2015, dated 2020).

The experiment has as its target T1, KRAS G12C 1-169, his-tagged protein, GDP-loaded (Homo sapiens, UniProt P01116, G12C).
T1 construct: KRAS G12C 1-169, his-tagged protein, GDP-loaded
Put plainly: Biochemical assay: covalent modification of KRAS G12C measured by mass spectrometry (RapidFire/TOF or Q-Exactive). Conditions: covalent binding to KRAS G12C; compounds of structure (I). Here is the method: Test compounds were prepared as 10 mM stock solutions in DMSO (Fisher cat #BP-231-100). KRAS G12C 1-169, his-tagged protein, GDP-loaded was diluted to 2 μm in buffer (20 mM Hepes, 150 mM NaCl, 1 mM MgCl2). Compounds were tested for activity as follows:
Compounds were diluted to 50× final test concentration in DMSO in 96-well storage plates. Compound stock solutions were vortexed before use and observed carefully for any sign of precipitation. Dilutions were as follow: • For 100 μM final compound concentration, compounds were diluted to 5000 μM (5 μl 10 mM compound stock+5 μl DMSO and mixed well by pipetting. • For 30 μM final compound concentration, compounds were diluted to 1500 μM (3 μl 10 mM compound stock+17p DMSO) and mixed well by pipetting. • For 10 μM final compound concentration, compounds were diluted to 500 μM (2 μl 10 mM compound stock+38p DMSO) and mixed well by pipetting. 49p of the stock protein solution was added to each well of a 96-well PCR plate (Fisher cat #1423027). 1 μl of the diluted 50× compounds were added to appropriate wells in the PCR plate using 12-channel pipettor. Reactions were mixed carefully and thoroughly by pipetting up/down with a 200·1 multi-channel pipettor. The plate was sealed well with aluminum plate seal, and stored in drawer at room temperature for 30 min, 2 hour or 24 hrs. 5·1 of 2% formic acid (Fisher cat #A117) in DI H2O was then added to each well followed by mixing with a pipette. The plate was then resealed with aluminum seal and stored on dry ice until analyzed as described below.
The above described assays were analyzed by mass spectrometry according to one of the following two procedures:
The MS instrument is set to positive polarity, 2 GHz resolution, and low mass (1700) mode and allowed to equilibrate for 30 minutes. The instrument is then calibrated, switched to acquisition mode and the appropriate method loaded.
After another 30 minute equilibration time, a blank batch (i.e., buffer) is run to ensure equipment is operating properly. The samples are thawed at 37° C. for 10 minutes, briefly centrifuged, and transfer to the bench top. Wells A1 and H12 are spiked with 1 uL 500 uM internal standard peptide, and the plates centrifuged at 2000×g for 5 minutes. The method is then run and masses of each individual well recorded.
The masses (for which integration data is desired) for each well are pasted into the platemap and exported from the analysis. Masses for the internal standards are exported as well. The data at 50 ppm is extracted for the +19 charge state, and identity of well A1 is assigned using the internal standard spike and integrated. Peak data is exported as a TOF list and the above steps are repeated individually, for the +20, 21, 22, 23, 24, and 25 charge states.
The masses and peak intensities of KRAS G12C protein species were measured using a Dionex RSLCnano system (Thermo Scientific) connected to a Q Exactive Plus mass spectrometer (Thermo Scientific).
[…] of sample was each loaded onto a Aeris™ 3.6 μm WIDEPORE C4 200 Å, LC Column 50×2.1 mm column maintained at 40° C. at a flow rate of 600 μl min^−1 with […] (0.1% formic acid in acetonitrile). The liquid chromatography conditions were 20% solvent B for 1 min, 20% to 60% solvent B for 1.5 min, 60% to 90% solvent for 0.5 min, 90% solvent B for 0.2 min, 90% to 20% solvent B for 0.2 min, and then equilibrated for 1.6 min before the following sample injection. The flow rate was maintained at 600 μl min^−1 throughout the sample analysis.
The mass spectrometer was operated in profile mode at a resolution of 17500, 5 microscans, using 50 msec max injection time and an AGC target of 1e6, and a full mass range from 800-1850 m/z was recorded. The HCD trapping gas was optimized for maximum sensitivity for intact proteins. […]

Take `C=CC(=O)N1CCN(c2nc(OCCN3CCOCC3)nc3c(F)c(-c4c(O)cccc4F)c(Cl)cc23)CC1` [Example I-10, 1-(4-(6-chloro-8-fluoro-7-(2-fluoro-6-hydroxyphenyl)-2-(2-morpholino-ethoxy)quinazolin-4-yl)piperazin-1-yl)prop-2-en-1-one]: the Binding % result is on record as “+++ (+++ indicates binding activity greater than 90%)”.

Regarding `C=CC(=O)N1CCN(c2nc(C#N)nc3c(F)c(-c4c(C)ccc5[nH]ncc45)c(Cl)cc23)CC1` [Example I-11, 4-(4-acryloyl-piperazin-1-yl)-6-chloro-8-fluoro-7-(5-methyl-1H-indazol-4-yl)quinazoline-2-carbonitrile], the Binding % entry is listed as “+++ (+++ indicates binding activity greater than 90%)”.

For `C=CC(=O)N1CCN(c2nc(NC3CCN(CC(F)(F)F)CC3)nc3c(F)c(-c4c(C)ccc5[nH]ncc45)c(Cl)cc23)CC1` [Example I-12, 1-(4-(6-chloro-8-fluoro-7-(5-methyl-1H-indazol-4-yl)-2-(1-(2,2,2-trifluoroethyl)piperidin-4-ylamino)quinazolin-4-yl)piperazin-1-yl)prop-2-en-1-one], the Binding % result is reported as “++ (++ indicates binding activity from 50 to 90%)”.

In the case of `C=CC(=O)N1CCN(c2nc(OC3CCOCC3)nc3c(F)c(-c4c(C)ccc5[nH]ncc45)c(Cl)cc23)CC1` [Example I-13, 1-(4-(6-chloro-8-fluoro-7-(5-methyl-1H-indazol-4-yl)-2-(tetrahydro-2H-pyran-4-yloxy)quinazolin-4-yl)piperazin-1-yl)prop-2-en-1-one], the Binding % entry is given as “+++ (+++ indicates binding activity greater than 90%)”.

In the case of `C=CC(=O)N1CCN(c2nc(OCCN3CCOCC3)nc3c(F)c(-c4cc(O)cc5ccccc45)c(Cl)cc23)CC1` [Example I-14, 1-(4-(6-chloro-8-fluoro-7-(3-hydroxy-naphthalen-1-yl)-2-(2-morpholino-ethoxy)quinazolin-4-yl)piperazin-1-yl)prop-2-en-1-one], the Binding % result is listed as “+++ (+++ indicates binding activity greater than 90%)”.

Regarding `C=CC(=O)N1CCN(c2nc(OCC3CCOCC3)nc3c(F)c(-c4c(C)ccc5[nH]ncc45)c(Cl)cc23)CC1` [Example I-15, 1-(4-(6-chloro-8-fluoro-7-(5-methyl-1H-indazol-4-yl)-2-((tetrahydro-2H-pyran-4-yl)methoxy)quinazolin-4-yl)piperazin-1-yl)prop-2-en-1-one], the Binding % result is “+++ (+++ indicates binding activity greater than 90%)”.

Consider `C=CC(=O)N1CCN(c2nc(OCCN3CCCC3=O)nc3c(F)c(-c4c(O)cccc4F)c(Cl)cc23)CC1` [Example I-16, 1-(2-(4-(4-acryloyl-piperazin-1-yl)-6-chloro-8-fluoro-7-(2-fluoro-6-hydroxyphenyl)quinazolin-2-yloxy)ethyl) pyrrolidin-2-one], for which the Binding % entry was “+++ (+++ indicates binding activity greater than 90%)”.

Regarding `C=CC(=O)N1CCN(c2nc(SCCN3CCOCC3)nc3c(F)c(-c4c(O)cccc4F)c(Cl)cc23)CC1` [Example I-17, 1-(4-(6-chloro-8-fluoro-7-(2-fluoro-6-hydroxyphenyl)-2-(2-morpholino-ethylthio)quinazolin-4-yl)piperazin-1-yl)prop-2-en-1-one], the Binding % entry is given as “++ (++ indicates binding activity from 50 to 90%)”.

On to `C=CC(=O)N1CCN(c2nc(OC3CCOCC3)nc3c(F)c(-c4c(O)cccc4F)c(Cl)cc23)CC1` [Example I-18, 1-(4-(6-chloro-8-fluoro-7-(2-fluoro-6-hydroxyphenyl)-2-(tetrahydro-2H-pyran-4-yloxy)quinazolin-4-yl)piperazin-1-yl)prop-2-en-1-one], for which the Binding % result is recorded as “+++ (+++ indicates binding activity greater than 90%)”.

Take `C=CC(=O)N1CCN(c2nc(OC3COC3)nc3c(F)c(-c4c(O)cccc4F)c(Cl)cc23)CC1` [Example I-19, 1-(4-(6-chloro-8-fluoro-7-(2-fluoro-6-hydroxyphenyl)-2-(oxetan-3-yloxy)quinazolin-4-yl)piperazin-1-yl)prop-2-en-1-one]: the Binding % entry is given as “++ (++ indicates binding activity from 50 to 90%)”.

Take `C=CC(=O)N1CCN(c2nc(NC3CCN(C4CC4)CC3)nc3c(F)c(-c4c(C)ccc5[nH]ncc45)c(Cl)cc23)CC1` [Example I-20, 1-(4-(6-chloro-2-(1-cyclopropyl-piperidin-4-ylamino)-8-fluoro-7-(5-methyl-1H-indazol-4-yl)quinazolin-4-yl)piperazin-1-yl)prop-2-en-1-one]: the Binding % result is “+++ (+++ indicates binding activity greater than 90%)”.

Regarding `C=CC(=O)N1CCN(c2nc(NC3CCN(CC(F)(F)F)CC3)nc3c(F)c(-c4c(O)cccc4F)c(Cl)cc23)CC1` [Example I-21, 1-(4-(6-chloro-8-fluoro-7-(2-fluoro-6-hydroxyphenyl)-2-(1-(2,2,2-trifluoroethyl)piperidin-4-ylamino)quinazolin-4-yl)piperazin-1-yl)prop-2-en-1-one], the Binding % entry was “+ (+ indicates binding activity up to 50%)”.

On to `C=CC(=O)N1CCN(c2nc(OC3CCN(C)C3)nc3c(F)c(-c4c(O)cccc4F)c(Cl)cc23)CC1` (stereo not drawn) [Example I-22, 1-(4-(6-chloro-8-fluoro-7-(2-fluoro-6-hydroxyphenyl)-2-(1-methyl-pyrrolidin-3-yloxy)quinazolin-4-yl)piperazin-1-yl)prop-2-en-1-one], for which the Binding % entry is “++ (++ indicates binding activity from 50 to 90%)”.

`C=CC(=O)N1CCN(c2nc(N3CC(N4CCC(F)(F)CC4)C3)nc3c(F)c(-c4c(O)cccc4F)c(Cl)cc23)CC1` [Example I-23, 1-(4-(6-chloro-2-(3-(4,4-difluoro-piperidin-1-yl)azetidin-1-yl)-8-fluoro-7-(2-fluoro-6-hydroxyphenyl)quinazolin-4-yl)piperazin-1-yl) prop-2-en-1-one]: the Binding % entry is on record as “++ (++ indicates binding activity from 50 to 90%)”.

For `C=CC(=O)N1CCN(c2nc(N3CC(N4CCOCC4)C3)nc3c(F)c(-c4c(O)cccc4F)c(Cl)cc23)CC1` [Example I-24, 1-(4-(6-chloro-8-fluoro-7-(2-fluoro-6-hydroxyphenyl)-2-(3-morpholino-azetidin-1-yl)quinazolin-4-yl)piperazin-1-yl)prop-2-en-1-one], the Binding % entry is listed as “+++ (+++ indicates binding activity greater than 90%)”.

Turning to `C=CC(=O)N1CCN(c2nc(Oc3cnn(C)c3)nc3c(F)c(-c4c(O)cccc4F)c(Cl)cc23)CC1` [Example I-25, 1-(4-(6-chloro-8-fluoro-7-(2-fluoro-6-hydroxyphenyl)-2-(1-methyl-1H-pyrazol-4-yloxy)quinazolin-4-yl)piperazin-1-yl)prop-2-en-1-one], the Binding % result is on record as “+++ (+++ indicates binding activity greater than 90%)”.

With `C=CC(=O)N1CCN(c2nc(OC3CCN(CC(F)(F)F)C3)nc3c(F)c(-c4c(O)cccc4F)c(Cl)cc23)CC1` (stereo not drawn) [Example I-26, 1-(4-(6-chloro-8-fluoro-7-(2-fluoro-6-hydroxyphenyl)-2-(1-(2,2,2-trifluoroethyl)pyrrolidin-3-yloxy)quinazolin-4-yl)piperazin-1-yl)prop-2-en-1-one], the Binding % result is “+++ (+++ indicates binding activity greater than 90%)”.

Consider `C=CC(=O)N1CCN(c2nc(OC3CCN(CC(F)(F)F)CC3)nc3c(F)c(-c4c(O)cccc4F)c(Cl)cc23)CC1` [Example I-27, 1-(4-(6-chloro-8-fluoro-7-(2-fluoro-6-hydroxyphenyl)-2-(1-(2,2,2-trifluoroethyl)piperidin-4-yloxy)quinazolin-4-yl)piperazin-1-yl)prop-2-en-1-one], for which the Binding % entry was “+++ (+++ indicates binding activity greater than 90%)”.
